For 21 molecules, IC50 results are on record in BindingDB's records for doi:10.1016/j.bmc.2015.04.057 (Beni-Suef University, 2015).

The nature of the test: Antiinflammatory activity in mouse RAW264.7 cells assessed as inhibition of LPS-induced iNOS activity incubated for 30 mins prior to LPS challenge measured after 24 hrs by Griess assay. (The Griess reaction detects nitrite, a stable product of nitric oxide.)
In general, IC50 refers to the midpoint of a concentration-inhibition curve. As for `O=c1sc2ccccc2n1CCCN1CCN(CCCn2c(=O)sc3ccccc32)CC1`, the IC50 is 4.62 µM.

Regarding `O=c1oc2ccccc2n1CCCCCN1CCN(CCCCCn2c(=O)oc3ccccc32)CC1`, the IC50 stood at 4.43 µM.

Consider `O=c1sc2ccccc2n1CCCCCN1CCN(CCCCCn2c(=O)sc3ccccc32)CC1`, for which the IC50 stood at 0.41 µM.

As to `O=c1oc2ccccc2n1CCCCCCN1CCN(CCCCCCn2c(=O)oc3ccccc32)CC1`, the concentration for half-maximal inhibition (IC50) is 4.22 µM.

`O=c1sc2ccccc2n1CCCCCCN1CCN(CCCCCCn2c(=O)sc3ccccc32)CC1`: the IC50 worked out at 0.28 µM.

As to `O=c1oc2ccccc2n1CCCCCN1CCN(CCn2c(=O)oc3ccccc32)CC1`, the IC50 came out at 4.98 µM.

Regarding `O=c1sc2ccccc2n1CCCCCN1CCN(CCn2c(=O)sc3ccccc32)CC1`, the IC50 came out at 4.51 µM.

On to `O=c1oc2ccccc2n1CCCCCCN1CCN(CCn2c(=O)oc3ccccc32)CC1`, for which the concentration for half-maximal inhibition (IC50) worked out at 4.66 µM.

Take `O=c1sc2ccccc2n1CCCCCCN1CCN(CCn2c(=O)sc3ccccc32)CC1`: the half-inhibitory concentration (IC50) turned out to be 3.43 µM.

Take `O=c1sc2ccccc2n1CCCCN1CCN(CCCn2c(=O)sc3ccccc32)CC1`: the IC50 was determined as 4.51 µM.

As to `O=c1oc2ccccc2n1CCCCCN1CCN(CCCn2c(=O)oc3ccccc32)CC1`, the IC50 worked out at 4.86 µM.

For `O=c1sc2ccccc2n1CCCCCN1CCN(CCCn2c(=O)sc3ccccc32)CC1`, the IC50 is 2.55 µM.

Regarding `O=c1oc2ccccc2n1CCCCCCN1CCN(CCCn2c(=O)oc3ccccc32)CC1`, the IC50 was 4.5 µM.

In the case of `O=c1sc2ccccc2n1CCCCCCN1CCN(CCCn2c(=O)sc3ccccc32)CC1`, the concentration for half-maximal inhibition (IC50) worked out at 2.57 µM.

As to `O=c1oc2ccccc2n1CCCCCN1CCN(CCCCn2c(=O)oc3ccccc32)CC1`, the IC50 is 4.54 µM.

As to `O=c1oc2ccccc2n1CCCCCCN1CCN(CCCCn2c(=O)oc3ccccc32)CC1`, the 50% inhibitory concentration (IC50) is 1.77 µM.

For the molecule `O=c1sc2ccccc2n1CCCCCCN1CCN(CCCCn2c(=O)sc3ccccc32)CC1`, the IC50 came out at 0.51 µM.

On to `O=c1oc2ccccc2n1CCCCCCN1CCN(CCCCCn2c(=O)oc3ccccc32)CC1`, for which the 50% inhibitory concentration (IC50) was determined as 2.9 µM.

As for `O=c1sc2ccccc2n1CCCCCCN1CCN(CCCCCn2c(=O)sc3ccccc32)CC1`, the half-maximal inhibitory concentration (IC50) was determined as 0.29 µM.

With `c1ccc2oc(SCCCCN3CCN(CCCCSc4nc5ccccc5o4)CC3)nc2c1`, the 50% inhibitory concentration (IC50) is 1.12 µM.

For the molecule `c1ccc2sc(SCCCCN3CCN(CCCCSc4nc5ccccc5s4)CC3)nc2c1`, the IC50 came out at 0.41 µM.
